Test results taken from patent publication US20220054595A1, “Formulation Including a Combination of beta-Endorphin and Adrenocorticotropic Hormone” (Adamis Pharmaceuticals Corporation, priority 2019, published 2022).

Assays:
[1] = tested on: EAE induced in SJL mice by PLP139-151/CFA immunization; test: EAE in SJL mice: histological and immunohistological analyses; assay type: in vivo, mouse
Procedure: (§1) The effect of administration of two dosages of ACTH and β-endorphin on severity and relapse in EAE was evaluated. EAE was induced in SJL mice by PLP139-151/CFA immunization on Day 0. Treatment was late therapeutic, starting on Day 20 after immunization for each mouse. Mice were observed through the end of the study, Day 42 after immunization. Four groups of 20 mice each received one of the following treatments: vehicle (a negative control); 10 mg/kg oral prednisolone daily (reference treatment); 32 μg ACTH+16 μg endorphin by subcutaneous injection, every 2nd day (low dose); or 64 μg ACTH+32 μg β-endorphin by subcutaneous injection, every 2nd day (high dose).
Treatment started on the day of group assignment (Day 20 after immunization). This was the time of the expected end of the first wave of EAE and before relapses were expected to begin. Treatment continued through Day 41. EAE score was determined daily by a person unaware of both treatment and of previous scores for each mouse. Weight was measured 3 times a week. Five mice in each group were euthanized on day 30 and the fifteen remaining mice euthanized at the end of the study (Day 42). Histological and immunohistological analyses were performed on tissue collected from the euthanized mice.

[2] = tested on: EAE induced in SJL mice by PLP139-151/CFA immunization; test: EAE in SJL mice, late therapeutic treatment: clinical findings; assay type: in vivo, mouse
Procedure: as §1
Mice were injected subcutaneously at four sites in the back with emulsion containing PLP139-151 (native sequence) from HOOKE KIT™ PLP139-151/CFA Emulsion, catalog number EK-0120 (Hooke Laboratories, Lawrence Mass.). Two sites of injection were in the upper back approximately 1 cm caudal of the neck line. The other two sites were in the lower back approximately 2 cm cranial of the base of the tail. The injection volume was 0.05 mL at each site. Even without treatment, most mice recover spontaneously after the first wave of disease. In the SJL model, EAE develops 10-15 days after immunization in 90-100% of immunized mice. The first wave of EAE lasts several days and most mice fully or almost fully recover from this first wave. After a disease-free period, which can last from one day to several months, most mice relapse. During the first 5-7 weeks after immunization, 50-100% of mice will develop a relapse. Each wave of paralysis results in body weight loss at onset, most of which is regained at recovery from the wave. The greatest weight loss is during the first wave of EAE. During the chronic phase of disease, the average EAE body weight is relatively stable, with normal slow increase with age. Since individual mice experience relapses at different times, only a few mice in each group are acutely sick at any given time after the first wave of EAE. Therefore, significant differences in relative body weight between groups are often not found after the first wave of disease in this model. In the vehicle treated group, disease developed as expected for this model. Five (5) mice were euthanized on Day 30 for analysis. Relapse occurred in 7 out of the 15 remaining mice, which were followed to Day 42, with typical course and severity of disease.
100 EAE induced mice were initially considered a single group and were scored daily starting on Day 9 after immunization. On Day 20, mice were assigned to the experimental groups in a balanced manner to achieve groups with similar times of EAE onset, similar maximum EAE score and similar scores at the time of enrollment into treatment (see Table 2). The remaining mice, which developed EAE last, or which developed unusual signs of EAE such as head tilting, were not assigned to any treatment group. […]
Treatment started on the day of group assignment (Day 20 after immunization). […] EAE score was determined daily by a person unaware of both treatment and of previous scores for each mouse. Weight was measured 3 times a week. […]

[3] = tested on: acute epileptic extensor spasms (AEES) in Ts65Dn mouse; settings: GABABR agonist-treated Ts65Dn mouse; cited from earlier work

## C[C@]12C=CC(=O)C=C1CC[C@@H]1[C@@H]2[C@@H](O)C[C@@]2(C)[C@H]1CC[C@]2(O)C(=O)CO [Prednisolone, prednisolone]
[1]; anti-myelin basic protein staining score 0-5
  Demyelination (anti-MBP) ± SD: 0.9 ± 0.6
[1]; gliosis, % of total spinal cord area
  GFAP ± SD (% of area): 13.3 ± 2.0 % of area
[1]; microglial activation, % of total spinal cord area
  lba1 ± SD (% of area): 4.0 ± 1.2 % of area
[1]; mouse, in vivo
  Demyelination, anti-myelin basic protein staining score versus vehicle (in words): only at best a trend to reduction
  Gliosis (scarring), area of anti-GFAP staining versus vehicle (in words): a higher level of gliosis
  Inflammation and inflammatory infiltrates, number of inflammatory foci versus vehicle (in words): only at best a trend to reduction
[1]; spinal cord histology of euthanized mice
  Inflammatory foci/section ± SD: 3.8 ± 2.4 foci/section
[2]; EAE score (scale 0-5) at end of study, mice followed until Day 42
  End score ± SD: 1.47 ± 1.04
[2]; end of study
  Body weight change versus vehicle control (in words): statistically significant loss of weight versus the vehicle control
[2]; mean maximal EAE score (scale 0-5), mice followed until Day 42, all mice in the group
  MMS of relapse period ± SD (Days 25-42): 2.07 ± 1.10
[2]; mice followed until Day 42, treatment Day 20-41, mice that relapsed as proportion of surviving mice that developed first wave of EAE
  Incidence of relapse: 33.3%
[2]; relative body weight at end of study, mice followed until Day 42
  End % body weight ± SD: 88.6% ± 9.3%

## Rodent ACTH: murine ACTH, SEQ ID NO: 9, SYSMEHFRWGKPVGKKRRPVKVYPNVAENESAEAFPLEF (listed as Mus musculus)
[3]
  Reduction of AEES: can significantly reduce AEES
